Measurements: US11319321B2, “[1,2,4]triazolo[1,5-a]pyrimidine compounds as PDE2 inhibitors” (Janssen Pharmaceutica NV, priority 2016, dated 2022)
Where two headings read alike, the source gives them in different places.

Key:
hPDE3B = experiment: In vitro assay PDE3 (SPA, 3H-cAMP); type: biochemical, human; details: 0.4 μM cAMP substrate; for hPDE3B Emax: in % (unit assumed)
hPDE10A2 = hPDE10A2 (Homo sapiens, UniProt Q9Y233); experiment: biochemical; details: 60 nM cAMP substrate; for IC50: human clone, read-out: hPDE10A2 or rPDE10A2 pIC50 (converted); for Emax: read-out: hPDE10A2 or rPDE10A2 Emax, human clone
Description: Rat recombinant PDE10A (rPDE10A2) was expressed in Sf9 cells using a recombinant rPDE10A baculovirus construct. Cells were harvested after 48 h of infection and the rPDE10A protein was purified by metal chelate chromatography on Ni-sepharose 6FF. Tested compounds were dissolved and diluted in 100% DMSO to a concentration 100 fold of the final concentration in the assay. Human recombinant PDE10A ([…]) was expressed in Sf9 cells using a recombinant hPDE10A baculovirus that was made and amplified in house. Cells were harvested after 72 h of infection and the hPDE10A protein was purified by metal chelate chromatography on Ni-sepharose. Compound dilutions (0.4 μl) were added in 384 well plates to 20 μl of incubation buffer (50 mM Tris pH 7.8, 8.3 mM MgCl2, 1.7 mM EGTA). 10 μl of rPDE10A or hPDE10A enzyme in incubation buffer was added and the reaction was started by addition of 10 μl substrate to a final concentration of 60 nM cAMP and […] ^3H-cAMP. The reaction was incubated for 60 minutes at room temperature. After incubation, the reaction was stopped with 20 μl of stop solution consisting of 17.8 mg/ml PDE SPA (scintillation proximity assay) beads. After sedimentation of the beads during 30 minutes the radioactivity was measured in a Perkin Elmer Topcount scintillation counter and results were expressed as cpm. For blanc values the enzyme was omitted from the reaction and replaced by incubation buffer. Control values were obtained by addition of a final concentration of 1% DMSO instead of compound. A best fit curve is fitted by a minimum sum of squares method to the plot of % of control value substracted with blanc value versus compound concentration and the half maximal inhibitory concentration (IC50) value is derived from this curve.

[1] = molecular target: T1, Human recombinant PDE2A (hPDE2A) (Homo sapiens, UniProt O00408); experiment: In vitro assay PDE2A (SPA, 3H-cGMP); type: biochemical
T1 construct: made in house; host or cells: Sf9 insect cells (baculovirus)
Description: Human recombinant PDE2A (hPDE2A) was expressed in Sf9 cells using a recombinant rPDE10A baculovirus construct. Cells were harvested after 48 h of infection and the hPDE2A protein was purified by metal chelate chromatography on Ni-sepharose 6FF. Tested compounds were dissolved and diluted in 100% DMSO to a concentration 100 fold of the final concentration in the assay. Compound dilutions (0.4 μl) were added in 384 well plates to 20 μl of incubation buffer (50 mM Tris pH 7.8, 8.3 mM MgCl2, 1.7 mM EGTA). 10 μl of hPDE2A enzyme in incubation buffer was added and the reaction was started by addition of 10 μl substrate to a final concentration of 10 μM cGMP and 0.01 μCi ^3H-cGMP. The reaction was incubated for 45 minutes at room temperature. […] After sedimentation of the beads during 30 minutes the radioactivity was measured in a Perkin Elmer Topcount scintillation counter and results were expressed as cpm. For blanc values the enzyme was omitted from the reaction and replaced by incubation buffer. Control values were obtained by addition of a final concentration of 1% DMSO instead of compound.

[2] = hPDE2A pIC50, 10 μM cGMP substrate
[3] = 10 μM cGMP substrate, read-out: hPDE2A pIC50 (converted)

hPDE10A2, sequence (Q9Y233 267-1055): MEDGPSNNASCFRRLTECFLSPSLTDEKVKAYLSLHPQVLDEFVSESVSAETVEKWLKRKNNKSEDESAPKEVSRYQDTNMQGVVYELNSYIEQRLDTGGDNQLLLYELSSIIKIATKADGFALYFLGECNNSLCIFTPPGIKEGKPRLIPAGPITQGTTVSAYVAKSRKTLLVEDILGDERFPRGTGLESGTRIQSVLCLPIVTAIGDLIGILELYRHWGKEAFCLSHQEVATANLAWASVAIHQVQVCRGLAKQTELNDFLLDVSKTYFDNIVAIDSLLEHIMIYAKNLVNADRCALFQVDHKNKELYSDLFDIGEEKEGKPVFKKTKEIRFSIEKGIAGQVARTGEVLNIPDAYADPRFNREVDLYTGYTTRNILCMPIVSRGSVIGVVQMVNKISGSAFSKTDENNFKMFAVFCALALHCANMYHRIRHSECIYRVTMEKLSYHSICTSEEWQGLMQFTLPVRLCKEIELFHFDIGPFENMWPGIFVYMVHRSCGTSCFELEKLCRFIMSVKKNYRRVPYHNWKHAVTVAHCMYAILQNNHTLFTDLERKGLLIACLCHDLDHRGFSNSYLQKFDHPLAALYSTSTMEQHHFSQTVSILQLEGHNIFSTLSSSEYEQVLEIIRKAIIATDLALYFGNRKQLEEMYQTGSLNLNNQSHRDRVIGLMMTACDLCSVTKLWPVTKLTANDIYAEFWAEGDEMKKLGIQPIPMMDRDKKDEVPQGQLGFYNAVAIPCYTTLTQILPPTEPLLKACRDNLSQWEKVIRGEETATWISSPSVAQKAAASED
T1 sequence (O00408 whole entry): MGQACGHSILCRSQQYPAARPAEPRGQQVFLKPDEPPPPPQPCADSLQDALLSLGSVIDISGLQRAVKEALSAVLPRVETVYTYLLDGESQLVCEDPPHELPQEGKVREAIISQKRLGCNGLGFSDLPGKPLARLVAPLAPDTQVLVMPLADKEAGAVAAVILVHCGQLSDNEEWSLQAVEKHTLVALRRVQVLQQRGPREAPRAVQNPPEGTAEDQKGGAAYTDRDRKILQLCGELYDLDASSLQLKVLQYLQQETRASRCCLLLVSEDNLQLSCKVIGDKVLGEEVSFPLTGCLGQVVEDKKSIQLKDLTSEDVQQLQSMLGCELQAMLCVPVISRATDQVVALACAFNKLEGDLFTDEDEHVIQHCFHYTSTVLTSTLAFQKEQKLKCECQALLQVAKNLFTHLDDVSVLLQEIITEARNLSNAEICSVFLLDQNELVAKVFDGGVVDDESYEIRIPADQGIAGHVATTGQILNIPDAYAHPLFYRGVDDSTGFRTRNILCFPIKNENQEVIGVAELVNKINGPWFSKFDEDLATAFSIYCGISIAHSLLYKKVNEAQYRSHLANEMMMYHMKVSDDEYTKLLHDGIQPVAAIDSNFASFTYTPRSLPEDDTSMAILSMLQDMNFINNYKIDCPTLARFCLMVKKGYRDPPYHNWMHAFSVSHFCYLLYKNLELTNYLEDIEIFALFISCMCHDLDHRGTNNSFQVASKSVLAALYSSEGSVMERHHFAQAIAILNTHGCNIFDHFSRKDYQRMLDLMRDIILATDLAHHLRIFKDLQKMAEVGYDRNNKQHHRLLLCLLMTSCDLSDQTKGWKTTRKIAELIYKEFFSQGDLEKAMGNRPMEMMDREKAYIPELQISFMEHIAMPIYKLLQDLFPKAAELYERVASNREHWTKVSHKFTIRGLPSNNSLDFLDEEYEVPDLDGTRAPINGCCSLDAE

Row | SMILES | hPDE3B pIC50 (hPDE3B) | hPDE3B Emax (hPDE3B) | IC50 (hPDE10A2) [µM] | Emax (hPDE10A2) [%] | Emax ([1]; 10 μM cGMP substrate) [%] | IC50 [1, 2] [nM] | IC50 [1, 3] [nM] | IC50 [1] [nM]
1 | Cc1cc(C(C)N2CC[C@@H](C)[C@H](c3cc(C(F)F)nc4ncnn34)C2)cc(C)n1 (mixture of isomers) [Compound 1] | <5 | 45 | 2.95 | 74 | 100 | 20.9 |  | 
2 | Cc1cc([C@H](C)N2CC[C@@H](C)[C@H](c3cc(C(F)F)nc4ncnn34)C2)cc(C2CC2)n1 (relative stereo) [Compound 2] | <5 | 29 | 2.95 | 78 | 99 |  | 87.1 | 
3 | C[C@@H]1CCN([C@@H](C)c2ccc(C(F)(F)F)cc2)C[C@H]1c1cc(C(F)F)nc2ncnn12 (relative stereo) [Compound 6] | <5 | 37 | 6.31 | 68 | 99 |  |  | 178
4 | C[C@@H]1CCN([C@H](C)c2ccc(C(F)(F)F)cc2)C[C@H]1c1cc(C(F)F)nc2ncnn12 (relative stereo) [Compound 7] | 5.08 | 57 | 7.76 | 47 | 98 |  |  | 102
5 | Cc1cc([C@H](C)N2CC[C@@H](C)[C@H](c3cc(C(F)F)nc4ncnn34)C2)cc(Cl)n1 (single isomer, unassigned) [Compound 4] | <5 | 45 | 1.1 | 88 | 99 |  | 7.76 | 
6 | Cc1cc([C@@H](C)N2CC[C@@H](C)[C@H](c3cc(C(F)F)nc4ncnn34)C2)cc(Cl)n1 (single isomer, unassigned) [Compound 5] | 5.13 | 55 | 1.51 | 87 | 100 |  | 77.6 | 
7 | C[C@@H]1CCN([C@H](C)c2ccc3ncsc3c2)C[C@H]1c1cc(C(F)F)nc2ncnn12 (single isomer, unassigned) [Compound 12] | ~5.07 | 54 | 2.04 | 86 | 99 |  |  | 44.7
8 | C[C@@H]1CCN([C@@H](C)c2ccc3ncsc3c2)C[C@H]1c1cc(C(F)F)nc2ncnn12 (single isomer, unassigned) [Compound 13] | ~5.02 | 47 | 1.48 | 85 | 98 |  |  | 58.9
9 | Cc1cc(CN2CC[C@@H](C)[C@@](F)(c3cc(C(F)F)nc4ncnn34)C2)cc(C)n1 (single isomer, unassigned) [Compound 49] | <5 | 17 | > 10 | 12 | 86 | 2140 |  | 
10 | COc1ccc(CN2CCC[C@](C)(c3cc(C(F)F)nc4ncnn34)C2)c(OC)c1.Cl (stereo in doubt) [Compound 53] | <5 | 3 | > 10 | 0 | 14 | 6920 |  | 
11 | C[C@]1(c2cc(C(F)F)nc3ncnn23)CCCN(Cc2ccc(F)c(F)c2)C1.Cl (stereo in doubt) [Compound 54] | <5 | 5 | > 10 | 9 | 15 |  | ~8910 | 
12 | Cc1cc(CN2CC[C@@H](C)[C@H](c3cc(C(F)F)nc4ncnn34)C2)cc(C2CC2)n1 [Compound 9] | <5 | 34 | 1.58 | 83 | 100 |  | 5.25 | 
13 | Cc1cc(CN2CC[C@@H](C)[C@H](c3cc(C(F)F)nc4ncnn34)C2)cc(Cl)n1.Cl [Compound 10] | <5 | 19 | 1.58 | 82 | 96 |  |  | 24.5
14 | Cc1cc(CN2CC[C@H](C)[C@@H](c3cc(C(F)F)nc4ncnn34)C2)cc(Cl)n1.Cl [Compound 11] | ~5.4 | 71 | ~10.2 | 47 | 19 |  |  | 3890
15 | C[C@@H]1CCN(Cc2ccc(Cl)c(Cl)c2)C[C@H]1c1cc(C(F)F)nc2ncnn12 [Compound 14] | <5 | 39 | 2.29 | 80 | 102 |  |  | 56.2
16 | Cc1cc(CN2CC[C@@H](C)[C@H](c3cc(C(F)F)nc4ncnn34)C2)ccn1.Cl [Compound 15] | <4.52 | 17 | ~10 | 45 | 95 |  |  | 95.5
17 | Cc1cc(CN2CC[C@H](C)[C@@H](c3cc(C(F)F)nc4ncnn34)C2)ccn1.Cl [Compound 16] | <5 | 23 | > 10 | 10 | 4 |  |  | 5890
18 | CC(C)c1ccc(CN2CC[C@@H](C)[C@H](c3cc(C(F)F)nc4ncnn34)C2)cc1 [Compound 18] | 5.1 | 60 | 7.76 | 56 | 98 |  |  | 282
19 | C[C@@H]1CCN(Cc2nccc3ccccc23)C[C@H]1c1cc(C(F)F)nc2ncnn12 [Compound 19] | <5 | 35 | 8.51 | 58 | 96 |  |  | 324
20 | C[C@@H]1CCN(Cc2ccccc2)C[C@H]1c1cc(C(F)F)nc2ncnn12 [Compound 20] | <5 | 23 | > 10 | 26 | 97 |  | 457 | 
21 | C[C@@H]1CCN(Cc2ccc(C#N)cc2)C[C@H]1c1cc(C(F)F)nc2ncnn12 [Compound 21] | <5 | 24 | ~10 | 48 | 97 |  |  | 468
22 | C[C@@H]1CCN(Cc2cccc(OC(F)F)c2)C[C@H]1c1cc(C(F)F)nc2ncnn12 [Compound 22] | <5 | 42 | 7.76 | 61 | 95 |  |  | 562
23 | C[C@@H]1CCN(Cc2ccc(OC(F)(F)F)cc2)C[C@H]1c1cc(C(F)F)nc2ncnn12 [Compound 23] | 5.14 | 49 | 6.92 | 62 | 97 |  | 575 | 
24 | C[C@@H]1CCN(Cc2cccc(OC(F)(F)F)c2)C[C@H]1c1cc(C(F)F)nc2ncnn12 [Compound 24] |  |  | 7.24 | 58 | 96 |  |  | 692
25 | C[C@@H]1CCN(Cc2cccc(C#N)n2)C[C@H]1c1cc(C(F)F)nc2ncnn12 [Compound 25] | <5 | 12 | > 10 | 28 | 92 | 1020 |  | 
26 | C[C@@H]1CCN(Cc2ccc(C(F)(F)F)cc2)C[C@H]1c1cc(C(F)F)nc2ncnn12 [Compound 39] |  |  | 6.17 | 65 | 99 |  | 170 | 
